# Results reported in ChEMBL document CHEMBL1146166, “Discovery and design of benzimidazolone based inhibitors of p38 MAP kinase” (Bioorg Med Chem Lett, 2006).
# Tests used:
# [1] = system: THP-1; experiment: Inhibition of LPS-stimulated TNFalpha production in THP1 cells; assay type: functional, cell-based; conditions: Homo sapiens
# [2] = Aqueous solubility at pH 7.4; assay type: physicochemical
# [3] = target: Mitogen-activated protein kinase 9 (Homo sapiens, UniProt P45984); experiment: Inhibition of Jnk2alpha2
# Sequence of Mitogen-activated protein kinase 9 (P45984 whole entry): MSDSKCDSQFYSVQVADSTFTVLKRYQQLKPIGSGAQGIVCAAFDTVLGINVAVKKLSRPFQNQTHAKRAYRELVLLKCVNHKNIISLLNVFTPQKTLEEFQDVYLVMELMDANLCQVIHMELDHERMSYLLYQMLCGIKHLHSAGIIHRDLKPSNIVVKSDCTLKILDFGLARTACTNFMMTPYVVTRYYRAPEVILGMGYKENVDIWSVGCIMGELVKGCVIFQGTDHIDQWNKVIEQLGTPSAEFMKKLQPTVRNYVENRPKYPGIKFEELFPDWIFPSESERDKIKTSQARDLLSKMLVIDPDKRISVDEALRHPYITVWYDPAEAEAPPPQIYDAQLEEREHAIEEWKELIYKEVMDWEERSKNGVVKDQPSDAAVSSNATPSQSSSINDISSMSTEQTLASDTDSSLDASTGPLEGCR
EC50 [1] [nM],solubility [2] [µM],IC50 [3] [nM],SMILES
250,–,–,O=c1[nH]c2cc(Oc3ccccc3)ccc2n1CC1CCCCC1
1000,–,–,O=C(c1ccccc1)c1ccc2c(c1)[nH]c(=O)n2Cc1ccccc1
74,–,–,O=c1[nH]c2cc(Nc3ccc(F)cc3)ccc2n1CC1CCCCC1
46,–,5500,O=c1[nH]c2cc(Nc3ccc(F)cc3F)ccc2n1CC1CCCCC1
64,–,–,Cc1ccccc1Nc1ccc2c(c1)[nH]c(=O)n2CC1CCCCC1
190,–,–,O=c1[nH]c2cc(Nc3cccc(F)c3)ccc2n1CC1CCCCC1
66,–,–,O=c1[nH]c2cc(Nc3ccccc3F)ccc2n1CC1CCCCC1
880,–,–,O=C(c1ccccc1)c1ccc2c(c1)[nH]c(=O)n2CC1CCCCC1
420,–,–,O=c1[nH]c2cc(Nc3ccc(F)c(F)c3)ccc2n1CC1CCCCC1
270,0.2,–,O=c1[nH]c2cc(Nc3ccccc3)ccc2n1CC1CCCCC1
> 5000,–,–,Cn1c(=O)[nH]c2cc(C(=O)c3ccccc3)ccc21
2300,–,–,O=c1[nH]c2cc(Nc3cccc(C(F)(F)F)c3)ccc2n1CC1CCCCC1

# Second part, the compound before the results:
SMILES,EC50 [1] [nM],solubility [2] [µM],IC50 [3] [nM]
O=c1[nH]c2cc(Nc3cc(Cl)cc(Cl)c3)ccc2n1CC1CCCCC1,> 10000,–,–
O=c1[nH]c2cc(Nc3ccccc3)ccc2n1Cc1c(F)cccc1F,220,–,–
CC(C)(CN)n1c(=O)[nH]c2cc(Nc3ccccc3)ccc21,3400,–,–
CN1CCN(c2cc3c(cc2Nc2ccccc2)[nH]c(=O)n3CC2CCCCC2)CC1,150,5.7,–
O=C(c1ccccc1)c1ccc2[nH]c(=O)[nH]c2c1,> 5000,–,–
Cc1ccccc1Nc1cc2[nH]c(=O)n(CC3CCCCC3)c2cc1N1CCN(C)CC1,180,–,–
O=c1[nH]c2cc(Nc3ccccc3)ccc2n1C1CCCC1,150,–,–
O=c1[nH]c2cc(Nc3ccccc3)ccc2n1C1CCNC1 (configuration not stated),1100,–,–
O=c1[nH]c2cc(Nc3ccccc3)c(N3CCNCC3)cc2n1CC1CCCCC1,150,–,–
CC(C)(C)n1c(=O)[nH]c2cc(Nc3ccccc3)ccc21,74,–,–
O=c1[nH]c2cc(Nc3ccccc3)ccc2n1Cc1ccccc1,320,–,–
N=C(N)c1ccc(Cn2c(=O)[nH]c3cc(C(=O)c4ccccc4)ccc32)cc1,> 10000,–,–
